“Also recorded” adds a separate entry of the source. Read-outs that look alike come from different tables or passages of the source.
Tests used:
VDR mRNA = settings: placental carcinoma cell lines; Pospechova et al. 2009; cited from earlier work
VDR variants = settings: after treatment; for levels of V1 and V2 VDR variants (active transcripts): all the breast cell lines
Excerpt: The V1d primers, spanning exon 1d and the junction of exon 1c and exon 2, were designed to recognize the transcript variants v1d, V1d′ and v1d″ (FIG. 1). In order to detect all of these variants, the nonspecific V6 primers, spanning exon 3 and exon 4, were used.
The PCR products were separated on 2% agarose gels, scanned in a Gel Doc Imager (BioRad, Philadelphia, Pa.), and quantified using Image Quant software (BioRad, Philadelphia, Pa.).

VDRE containing genes = assay: Expression of VDRE-containing genes after treatment in vitro; format: cell-based, human
Protocol: FIGS. 6A-6C show expression levels of VDR Response Element (VDRE)-containing genes in primary breast cancer and normal breast tissue. […] Assays were performed in triplicate on a total of 8 breast cancers and 3 normal organoid preparations. […] Means and standard deviations are shown. Significant differences between normal and cancer are indicated (* p<0.05; ** p<0.01). […] The bars represent the fold induction of VDR downstream gene targets (CYP3A4[24/25OH]-white, CYP27B1[1OH]-grey, and C/EBP-hatched) over untreated control (horizontal line=1.0). Means and standard deviations of triplicate experiments are shown (* p<0.05; ** p<0.01).

[1] = tested on: breast cancer cell lines (HS578T, 21PT, MCF7, and T47D) and the immortalized normal breast epithelial cell line HBL100; settings: 96 hours, Calcitriol 1.5 μM, AZA 10 μM, alone or combined, five breast cell lines, vs vehicle control
Protocol: Cell viability was measured by MTT assay.
(§1) Human breast cell lines were obtained from American Type Culture Collection (Rockville, Md.) and propagated as described 17. For pharmacological assays, 1.0×10^6 cells were seeded in 25 cm^2 tissue culture flasks.
Cell viability was measured using the Cell Titer 96 AQ-One Solution Cell Proliferation Assay kit from Promega Corporation (Madison, Wis.). Formazan absorbance was read at 490 nm in a 96-well plate reader.

VDR = assay: Quantitative Real-Time PCR of total VDR expression in breast cell lines; settings: 96 hours, V primer set
Protocol: as §1
PCR was then performed for 40 cycles using gene-specific primers. To determine total VDR levels, pre-mixed “Assay on Demand” primer-probe sets for VDR (Hs01045843_m1) and GAPDH (Hs99999905_m1) and the GeneAmp® Fast PCR Master Mix were purchased from Applied Biosystems (Foster City, Calif.) and cDNA was amplified following the manufacturer's instructions in the ABI PRISM 7900HT instrument.

VDR promoter = settings: 96 hours, all breast cell lines
Protocol: To determine whether the VDR gene promoter was hypermethylated in breast cancer, bisulfite sequencing was performed in the region 790 bp upstream to 380 bp downstream of the VDR transcription start site after treatment of cells in the presence or absence of AZA for ninety six hours (see FIG. 3).
PCR products were separated electrophoretically and isolated using a PCR purification kit (Qiagen, Valencia, Calif.). DNA was sequenced using the M13 Reverse Primer with an Applied Biosystems automated fluorescent sequencer according to the manufacturer's instructions. Percent DNA methylation was determined using the ratio of cytidine to thymidine traces at CpG dinucleotides.

Compound	VDR mRNA expression (VDR mRNA)	levels of V1 and V2 VDR variants (active transcripts) (VDR variants)	levels of V1 and V2 VDR variants (active transcripts) (VDR variants; listed as 5′ dAZA)	V1d and V1d′ VDR variants, response to demethylation (VDR variants; breast cell lines)	expression of VDRE containing genes (VDRE containing genes)	cell viability / growth inhibition [1]	overall expression level of VDR (total VDR transcripts) (VDR)	methylation of the CpG islands in the VDR promoter (VDR promoter)	methylation of the CpG islands in the VDR promoter (VDR promoter; listed as 5′ dAZA)	cell viability / growth inhibition ([1]; listed as VTD)
5′ deoxy-azacytidine	re-expression	significantly increased; also recorded: induced the re-expression	restored	less responsive	concurrent increase	restoration of sensitivity	parallel increase	induced demethylation	demethylated	–
C=C1/C(=C\C=C2/CCC[C@]3(C)[C@@H]([C@H](C)CCCC(C)(C)O)CC[C@@H]23)C[C@@H](O)C[C@@H]1O [Calcitriol, 1,25-dihydroxyvitamin D3]	–	–	–	–	–	minimal effects; also recorded: insensitivity	–	–	–	ineffective

Source: patent publication US20120115804A1, “COMPOSITIONS AND METHODS FOR CHARACTERIZING AND TREATING NEOPLASIA” (The John Hopkins University, priority 2009, published 2012)
